Laboratory results reported in ChEMBL document CHEMBL1144892, “Synthesis and biological activity of various derivatives of a novel class of potent, selective, and orally active prostaglandin D2 receptor antagonists. 2. 6,6-Dimethylbicyclo[3.1.1]heptane derivatives” (J Med Chem, 2003).

Experiments:
[1] = biological target: T1, Prostaglandin D2 receptor (Homo sapiens, UniProt Q13258); experiment: Concentration required to inhibit the PGD-2 evoked cAMP formation in human platelets; type: functional
T1 sequence (Q13258 whole entry): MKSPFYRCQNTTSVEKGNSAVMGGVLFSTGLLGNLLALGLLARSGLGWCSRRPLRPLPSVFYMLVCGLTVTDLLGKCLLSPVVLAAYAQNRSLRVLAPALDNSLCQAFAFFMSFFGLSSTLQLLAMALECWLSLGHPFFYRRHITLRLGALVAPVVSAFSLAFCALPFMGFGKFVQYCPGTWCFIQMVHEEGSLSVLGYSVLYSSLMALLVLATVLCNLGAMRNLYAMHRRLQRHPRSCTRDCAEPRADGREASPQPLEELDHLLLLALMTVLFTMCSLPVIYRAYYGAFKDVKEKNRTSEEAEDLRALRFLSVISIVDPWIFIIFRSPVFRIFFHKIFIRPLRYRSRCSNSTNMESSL

[2] = biological target: T1, Prostaglandin D2 receptor; experiment: Prostaglandin D2 receptor antagonist activity, evaluated by inhibition of [3H]PGD-2 binding to human platelet membranes
Cavia porcellus [3] = experiment: In vivo inhibition of antigen-induced increase in intranasal pressure in actively sensitized guinea pig administered perorally with 3 mg/Kg compound, 10 minutes before the antigen challenge; type: functional; conditions: inhaled or nasal
Cavia porcellus [4] = experiment: Effective dose required to inhibit conjuctival microvascular permeability caused by topical application of 0.1% antigen in guinea pig administered perorally with compound, 1 hour before the test; type: functional
Cavia porcellus [5] = experiment: Effective dose required to inhibit conjuctival microvascular permeability caused by topical application of 0.1% PGD-2 in guinea pig administered perorally with compound, 1 hour before the test; type: functional
Cavia porcellus [6] = experiment: Percent inhibition against increase in specific airway resistance by antigen inhalation in conscious guinea pig administered perorally with 10 mg/Kg of compound, 1 hr before the test; type: functional
Cavia porcellus [7] = experiment: In vivo inhibition of antigen-induced increase in intranasal pressure in actively sensitized guinea pig administered intravenously with 1 mg/Kg compound, 10 minutes before the antigen challenge; type: functional
Cavia porcellus [8] = experiment: In vivo inhibition of antigen-induced increase in intranasal pressure in actively sensitized guinea pig administered perorally with 10 mg/Kg compound, 10 minutes before the antigen challenge; type: functional; conditions: oral
Cavia porcellus [9] = experiment: In vivo percent inhibition against antigen induced increase in intranasal pressure in actively sensitized guinea pig administered intravenously with 1 mg/Kg of compound; type: functional
Cavia porcellus [10] = experiment: Compound at 10 mg/kg was tested for the inhibition of increase in eosinophil number in nasal lavage fluid at 5 hr after intranasal antigen challenge in actively sensitized guinea pig; type: functional; conditions: inhaled or nasal
Cavia porcellus [11] = experiment: Compound at 10 mg/kg was tested for the inhibition of increase in eosinophil number in bronchoalveolar lavage fluid at 72 hr after inhalation of aerosol antigen in actively sensitized guinea pig; type: functional; conditions: Lung, inhaled or nasal

Compound: CC1(C)[C@H]2C[C@H](C/C=C/CCCC(=O)O)[C@@H](NC(=O)c3cc4ccccc4o3)[C@@H]1C2
- IC50 [1]: 76 nM
- IC50 [2]: 690 nM

Compound: CC1(C)[C@H]2C[C@H](C/C=C/CCCC(=O)O)[C@@H](NC(=O)C3CCCCC3)[C@@H]1C2
- IC50 [1]: > 1000 nM
- IC50 [2]: > 10000 nM

Compound: CC1(C)[C@H]2C[C@H](C/C=C/CCCC(=O)O)[C@@H](NC(=O)c3csc4ccc(NS(C)(=O)=O)cc34)[C@@H]1C2
- IC50 [1]: 30 nM
- IC50 [2]: 7500 nM

Compound: CC1(C)[C@H]2C[C@H](C/C=C/CCCC(=O)O)[C@@H](NC(=O)c3ccc4c(c3)OCO4)[C@@H]1C2
- IC50 [1]: 170 nM
- IC50 [2]: 2100 nM

Compound: CN(C(=O)c1ccsc1)[C@@H]1[C@@H](C/C=C/CCCC(=O)O)C[C@H]2C[C@@H]1C2(C)C
- IC50 [1]: > 1000 nM
- IC50 [2]: > 10000 nM

Compound: Cc1sccc1C(=O)N[C@@H]1[C@@H](C/C=C/CCCC(=O)O)C[C@H]2C[C@@H]1C2(C)C
- IC50 [1]: 20 nM
- IC50 [2]: 180 nM

Compound: CC1(C)[C@H]2C[C@H](C/C=C/CCCC(=O)O)[C@@H](NC(=O)c3csc4ccc(F)cc34)[C@@H]1C2
- inhibition in vivo at 3 mg/kg (Cavia porcellus [3]): 86%
- IC50 [1]: 3.2 nM
- ED50 (Cavia porcellus [4]): 8.9 mg/kg
- ED50 (Cavia porcellus [5]): 3.5 mg/kg
- Inhibition (Cavia porcellus [6]): 69%
- IC50 [2]: 0.42 nM

Compound: CC1(C)[C@H]2C[C@H](C/C=C\CCCC(=O)O)[C@@H](NC(=O)c3ccccc3)[C@@H]1C2
- inhibition in vivo at 1 mg/kg (Cavia porcellus [7]): 52%

Compound: CC1(C)[C@H]2C[C@@H](NS(=O)(=O)c3ccc(-c4ccccc4)cc3)[C@H](C/C=C\CCCC(=O)O)[C@@H]1C2
- IC50 [1]: > 1000 nM
- IC50 [2]: 1300 nM

Compound: CC1(C)[C@H]2C[C@@H](NC(=O)c3ccc(-c4ccccc4)cc3)[C@H](C/C=C\CCCC(=O)O)[C@@H]1C2
- IC50 [1]: > 1000 nM
- IC50 [2]: 3600 nM

Compound: CC1(C)[C@H]2C[C@H](C/C=C/CCCC(=O)O)[C@@H](NC(=O)c3cc4ccccc4s3)[C@@H]1C2
- IC50 [1]: 390 nM
- IC50 [2]: 19 nM

Compound: Cc1scc(C(=O)N[C@@H]2[C@@H](C/C=C/CCCC(=O)O)C[C@H]3C[C@@H]2C3(C)C)c1-c1ccccc1
- IC50 [1]: 74 nM
- IC50 [2]: 590 nM

Compound: CC1(C)[C@H]2C[C@H](C/C=C/CCCC(=O)O)[C@@H](NC(=O)c3ccc(O)cc3)[C@@H]1C2
- IC50 [1]: 240 nM
- IC50 [2]: 3400 nM

Compound: CC1(C)[C@H]2C[C@H](C/C=C/CCCC(=O)O)[C@@H](NC(=O)c3cccc4ccsc34)[C@@H]1C2
- IC50 [1]: 5.6 nM
- inhibition in vivo at 10 mg/kg (Cavia porcellus [8]): 70%
- IC50 [2]: 26 nM

Compound: CC1(C)[C@H]2C[C@H](C/C=C\CCCC(=O)O)[C@@H](NS(=O)(=O)c3ccc(-c4ccccc4)cc3)[C@@H]1C2
- IC50 [1]: 530 nM
- IC50 [2]: 1200 nM

Compound: CC1(C)[C@H]2C[C@H](C/C=C/CCCC(=O)O)[C@@H](NC(=O)c3csc4cc(O)ccc34)[C@@H]1C2
- IC50 [1]: 18 nM
- inhibition in vivo at 10 mg/kg (Cavia porcellus [8]): 88%
- IC50 [2]: 2.2 nM

Compound: CC1(C)[C@H]2C[C@H](C/C=C/CCCC(=O)O)[C@@H](NC(=O)c3cccs3)[C@@H]1C2
- IC50 [1]: 15 nM
- Inhibition (Cavia porcellus [9]): 38%
- IC50 [2]: 3300 nM

Compound: COc1cc(C(=O)N[C@@H]2[C@@H](C/C=C/CCCC(=O)O)C[C@H]3C[C@@H]2C3(C)C)cs1
- IC50 [1]: 56 nM
- IC50 [2]: 520 nM

Compound: CC1(C)[C@H]2C[C@H](C/C=C/CCCC(=O)O)[C@@H](NC(=O)c3cccnc3)[C@@H]1C2
- IC50 [2]: 330 nM

Compound: CC1(C)[C@H]2C[C@H](C/C=C/CCCC(=O)O)[C@@H](NC(=O)c3ccc([N+](=O)[O-])cc3)[C@@H]1C2
- IC50 [1]: 110 nM
- IC50 [2]: 4400 nM

Compound: CC1(C)[C@H]2C[C@H](C/C=C/CCCC(=O)O)[C@@H](NC(=O)c3csc(-c4ccccc4)c3)[C@@H]1C2
- IC50 [1]: 100 nM
- IC50 [2]: 42 nM

Compound: CC1(C)[C@H]2C[C@H](NC(=O)c3ccc(-c4ccccc4)cc3)[C@@H](C/C=C\CCCC(=O)O)[C@@H]1C2
- IC50 [1]: > 1000 nM
- IC50 [2]: 5100 nM

Compound: CC1(C)[C@H]2C[C@H](C/C=C\CCCC(=O)O)[C@@H](NC(=O)c3ccc(/N=N/c4ccccc4)cc3)[C@@H]1C2
- inhibition in vivo at 1 mg/kg (Cavia porcellus [7]): 60%

Compound: CN(C(=O)c1ccccc1)[C@@H]1[C@@H](C/C=C/CCCC(=O)O)C[C@H]2C[C@@H]1C2(C)C
- IC50 [1]: > 1000 nM
- IC50 [2]: > 10000 nM

Compound: COc1ccc(C(=O)N[C@@H]2[C@@H](C/C=C/CCCC(=O)O)C[C@H]3C[C@@H]2C3(C)C)cc1
- IC50 [1]: 190 nM
- IC50 [2]: 3900 nM

Compound: CC1(C)[C@H]2C[C@H](C/C=C/CCCc3nnn[nH]3)[C@@H](NC(=O)c3ccsc3)[C@@H]1C2
- IC50 [1]: 93 nM

Compound: Cc1cc(C(=O)N[C@@H]2[C@@H](C/C=C/CCCC(=O)O)C[C@H]3C[C@@H]2C3(C)C)cs1
- IC50 [1]: 25 nM
- IC50 [2]: 13 nM

Compound: CC1(C)[C@H]2C[C@H](C/C=C/CCCC(=O)NS(C)(=O)=O)[C@@H](NC(=O)c3ccsc3)[C@@H]1C2
- IC50 [1]: 410 nM
- IC50 [2]: 6000 nM

Compound: CC1(C)[C@H]2C[C@H](C/C=C/CCCC(=O)O)[C@@H](NC(=O)Cc3ccccc3)[C@@H]1C2
- IC50 [1]: > 1000 nM
- IC50 [2]: > 10000 nM

Compound: CC1(C)[C@H]2C[C@H](C/C=C/CCCC(=O)O)[C@@H](NC(=O)c3csc4ccccc34)[C@@H]1C2
- IC50 [1]: 22 nM
- inhibition in vivo at 10 mg/kg (Cavia porcellus [8]): 82%
- IC50 [2]: 32 nM

Compound: COc1cscc1C(=O)N[C@@H]1[C@@H](C/C=C/CCCC(=O)O)C[C@H]2C[C@@H]1C2(C)C
- IC50 [1]: 230 nM
- IC50 [2]: 4500 nM

Compound: CC1(C)[C@H]2C[C@H](C/C=C/CCCC(=O)O)[C@@H](NC(=O)c3c[nH]c4ccccc34)[C@@H]1C2
- IC50 [1]: 110 nM
- IC50 [2]: 520 nM

Compound: CC1(C)[C@H]2C[C@H](C/C=C/CCCC(=O)O)[C@@H](NC(=O)Cc3ccoc3)[C@@H]1C2
- IC50 [1]: 17 nM
- IC50 [2]: 560 nM

Compound: Cn1ccc(C(=O)N[C@@H]2[C@@H](C/C=C/CCCC(=O)O)C[C@H]3C[C@@H]2C3(C)C)c1
- IC50 [1]: 110 nM
- IC50 [2]: 420 nM

Compound: CC1(C)[C@H]2C[C@H](C/C=C/CCCC(=O)O)[C@@H](NC(=O)c3cncs3)[C@@H]1C2
- IC50 [1]: 500 nM
- IC50 [2]: > 10000 nM

Compound: CC1(C)[C@H]2C[C@H](C/C=C/CCCC(=O)O)[C@@H](NC(=O)c3csc4c3CCCC4)[C@@H]1C2
- IC50 [1]: 35 nM
- IC50 [2]: 150 nM

Compound: CC1(C)[C@H]2C[C@H](C/C=C\CCCC(=O)O)[C@@H](NC(=O)c3ccc(-c4ccccc4)cc3)[C@@H]1C2
- IC50 [1]: 470 nM
- inhibition in vivo at 1 mg/kg (Cavia porcellus [7]): 30%
- IC50 [2]: 47 nM

Compound: COc1ccccc1C(=O)N[C@@H]1[C@@H](C/C=C/CCCC(=O)O)C[C@H]2C[C@@H]1C2(C)C
- IC50 [1]: 320 nM
- IC50 [2]: 4600 nM

Compound: CC1(C)[C@H]2C[C@H](C/C=C/CCCC(=O)O)[C@@H](NC(=O)c3ccc4ccccc4c3)[C@@H]1C2
- IC50 [1]: 73 nM

Compound: CC1(C)[C@H]2C[C@H](NS(=O)(=O)c3ccc(-c4ccccc4)cc3)[C@@H](C/C=C\CCCC(=O)O)[C@@H]1C2
- IC50 [1]: > 1000 nM
- IC50 [2]: 1300 nM

Compound: CC1(C)[C@H]2C[C@H](CC(=O)CCCCC(=O)O)[C@@H](NC(=O)c3ccsc3)[C@@H]1C2
- IC50 [1]: > 1000 nM
- IC50 [2]: > 10000 nM

Compound: CC1(C)[C@H]2C[C@H](C/C=C/CCCC(=O)O)[C@@H](NC(=O)c3csc4ccc(O)cc34)[C@@H]1C2
- inhibition in vivo at 3 mg/kg (Cavia porcellus [3]): 64%
- IC50 [1]: 0.9 nM
- inhibition in vivo at 10 mg/kg (Cavia porcellus [8]): 96%
- ED50 (Cavia porcellus [4]): 2 mg/kg
- ED50 (Cavia porcellus [5]): 0.12 mg/kg
- inhibition in vivo at 10 mg/kg (Cavia porcellus [10]): 80%
- Inhibition (Cavia porcellus [6]): 70%
- IC50 [2]: 1.9 nM
- inhibition in vivo at 10 mg/kg (Cavia porcellus [11]): 43%

Compound: CC1(C)[C@H]2C[C@H](C/C=C/CCCC(=O)O)[C@@H](NC(=O)c3ccc[nH]3)[C@@H]1C2
- IC50 [1]: 37 nM
